The values below come from US4256736A, “Psychopharmacological peptides” (Akzona Incorporated, priority 1978, dated 1981).

Test [1] relates to rats. Put plainly: Pole-jumping avoidance behavior (pole climbing test), extinction of the flight response. In kind it is in vivo, rat. The note with it: mean ± S.E. The source says:
Rats were trained to jump onto a pole within 5 sec. following presentation of the conditioned stimulus (CS) which was a light on top of the cage. […] 10 trials a day were given in one session with an average intertrial interval of 60 sec. Intervals between trials were 40, 60 and 80 sec. which were presented in a random fashion. Rats were trained for 4 days. Extinction was studied the day following acquisition. During this first post-acquisition session failure to respond within 5 sec. to the CS were not followed by the UCS. All rats were given a 10 trial extinction session. Those animals which made 8 or more avoidances were used for further experimentation. These rats received peptide or placebo (saline) in a volume of 0.5 ml per rat s.c. immediately after completion of the first extinction session. Extinction was studied again 2 and 4 h. later.

Test [2] concerns opiate receptor. The following applies: in words, prior art section; cited from earlier work.
For test [3], the system named is rats. The note with it: in words, prior art section; cited from earlier work.
The subject of test [4] is rats. Put plainly: Ambulation of rats. It is filed as in vivo, rat. The note with it: in words, higher dosages.
The conditions of test [5]: in words; cited from earlier work.
For test [6] the following is noted: in words; can be antagonised by naloxone; cited from earlier work.
Test [7] has as its system melanocytes. The note with it: in words; cited from earlier work.
Setting [8] is: 0.03 μg per rat s.c., 0 h (first extinction session, injection immediately after).
The mark [9] stands for this setting: 0.03 μg per rat s.c., 2 h after injection.
The mark [10] stands for this setting: 0.03 μg per rat s.c., 4 h after injection.
The mark [11] stands for this setting: 0.1 μg per rat s.c., 0 h (first extinction session, injection immediately after).
Setting [12] is: 0.1 μg per rat s.c., 2 h after injection.
Setting [13] is: 0.1 μg per rat s.c., 4 h after injection.
Setting [14] is: 0.3 μg per rat s.c., 0 h (first extinction session, injection immediately after).
[15] abbreviates: 0.3 μg per rat s.c., 2 h after injection.
The mark [16] stands for this setting: 0.3 μg per rat s.c., 4 h after injection.

Entries after “also recorded” stand apart in the source; their conditions may differ.

As to `O=C(CCCN1CCC(O)(c2ccc(Cl)cc2)CC1)c1ccc(F)cc1` [Haloperidol], the “Extinction (10 trials)” value is listed as 9.3 ± 0.3 in test [1] (setting [8]); 6.5 ± 0.7 in test [1] (setting [9]); 4.0 ± 0.6 in test [1] (setting [10]); 9.5 ± 0.4 in test [1] (setting [11]); 3.0 ± 0.0 in test [1] (setting [12]); 0.5 ± 0.4 in test [1] (setting [13]).
As for D-Ala-Met-enkephalin, in test [2], the “affinity for the opiate receptor” value was “Affinity for the opiate receptor”.
Regarding “H-GGFMTSEKSQTPLVTL-OH [[Des-Tyr^1]γ-endorphin, H-Gly-Gly-Phe-Met-Thr-Ser-Glu-Lys-Ser-Gln-Thr-Pro-Leu-Val-Thr-Leu-OH]”, the “Extinction (10 trials)” value in test [1] (0.01 μg per rat s.c., 0 h (first extinction session, injection immediately after)) stood at 9.0 ± 0.3; in test [1] (0.01 μg per rat s.c., 2 h after injection), 6.2 ± 0.4; in test [1] (0.01 μg per rat s.c., 4 h after injection), 4.2 ± 0.7; in test [1] (setting [11]) it was 8.8 ± 0.4; in test [1] (setting [12]) it was 2.8 ± 1.0; in test [1] (setting [13]), 1.2 ± 0.5. The “Extinction (10 trials)” value in test [1] (setting [14]) worked out at 9.3 ± 0.5; in test [1] (setting [15]), 3.0 ± 0.7; in test [1] (setting [16]), 1.3 ± 0.5.
Turning to Leu-enkephalin, the “affinity for the opiate receptor” value in test [2] is “Affinity for the opiate receptor”.
As for Met-enkephalin, the “affinity for the opiate receptor” value in test [2] is on record as “a certain affinity for the opiate receptor”. Further, the “effect on extinction of the (active) flight response in the pole-climbing test” value (“effect on extinction” for short) in test [3] is listed as “inhibit the extinction of the flight response”.
On to α-endorphin, for which the “Extinction (10 trials)” value in test [1] (setting [14]) is 9.0 ± 0.4; in test [1] (setting [15]), 8.3 ± 0.3; in test [1] (setting [16]) it was 7.8 ± 0.3. In test [2], the “affinity for the opiate receptor” value is “a certain affinity for the opiate receptor”. Besides, the reduction in ambulation result in test [4] is reported as “could not be observed”. In addition, the “effect on extinction” value in test [3] was “inhibit the extinction of the flight response; also recorded: retarded this extinction of the flight response”.
For β-LPH-(61-69), in test [2], the “affinity for the opiate receptor” value is recorded as “a certain affinity for the opiate receptor”. Besides, the “effect on extinction” value in test [3] is given as “inhibit the extinction of the flight response”.
On to β-Lipotropin, for which, in test [5], the fat-mobilising activity entry is listed as “shows fat-mobilising activity”.
For “β-endorphin (YGGFMTSEKSQTPLVTLFKNAIIKNAYKKGE; Beta-endorphin; UniProt P01189 237-267, looked up)”, the “effect on extinction” value in test [3] is “inhibits the extinction of the (active) flight response”. The analgesic activity entry in test [6] is on record as “possess analgesic activity”.
As to β-melanotropin, the “influencing the pigmentation of the skin” value in test [7] was “capable of influencing the pigmentation of the skin by stimulating the melanocytes”.
Take γ-endorphin: the “Extinction (10 trials)” value in test [1] (setting [8]) is given as 8.8 ± 0.3; in test [1] (setting [9]), 6.7 ± 0.8; in test [1] (setting [10]), 4.0 ± 0.7; in test [1] (setting [11]), 9.3 ± 0.3; in test [1] (setting [12]), 5.5 ± 0.6; in test [1] (setting [13]), 2.3 ± 0.4. Moreover, the “Extinction (10 trials)” value in test [1] (setting [14]) is 9.0 ± 0.4; in test [1] (setting [15]) it was 4.6 ± 0.3; in test [1] (setting [16]), 0.8 ± 0.4. The reduction in ambulation entry in test [4] was “could not be observed”. In test [3], the “effect on extinction” value is reported as “accelerate the extinction of the flight response”.
As to γ-lipotropin, the fat-mobilising activity entry in test [5] is reported as “possesses fat-mobilising properties”.
